ChEMBL document CHEMBL1201862, “PubChem BioAssay data set” (2004)
Values belong to the compound of their own block, whether it stands above or below them. Activity calls are given as the source filed them.

Legend:
Fatty acid synthase [1] = molecular target: T1, Fatty acid synthase (Homo sapiens, UniProt P49327); experiment: FAS thioesterase domain inhibitors, dose response, biochemical, kinetic fluorescence intensity (AID 624326); type: functional;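 also: rate of fluorescence rise from hydrolysis of a fluorogenic O-methyl fluorescein ester substrate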
[2] = molecular target: Sphingosine 1-phosphate receptor 2 (Homo sapiens, UniProt O95136); experiment: Dose Response Cell Based Assay for Agonists of the S1P2 Receptor. [Related pubchem assays: 729, 736, 843 ]; type: functional
Fatty acid synthase [3] = molecular target: T1, Fatty acid synthase; experiment: FAS thioesterase domain inhibitors, dose response, biochemical, endpoint fluorescence intensity, uHTS hits (AID 624327); type: functional;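 also: fluorescence from hydrolysis of an O-methyl fluorescein acyl ester substrate by the enzyme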
[4] = molecular target: Endoplasmic reticulum aminopeptidase 1 (Homo sapiens, UniProt Q9NZ08); experiment: ERAP1 aminopeptidase inhibitors, dose response, biochemical, cherry-pick, set 2, plate reader (AID 743314)
[5] = molecular target: Sphingosine 1-phosphate receptor 4 (Homo sapiens, UniProt O95977); experiment: Fluorescence dose response cell-based high throughput screening assay for agonists of the Sphingosine 1-Phosphate Receptor 4 (S1P4). [Related pubchem assays: 1509 (Primary screen.), 1523 (Confirmation screen in triplicates.)]; type: functional
[6] = molecular target: Sphingosine 1-phosphate receptor 1 (Homo sapiens, UniProt P21453); experiment: Fluorescence-based counterscreen assay for S1P4 agonists: Cell-based dose response high throughput screening assay to identify agonists of the Sphingosine 1-Phosphate Receptor 1 (S1P1). [Related pubchem assays (depositor defined):AID1509, AID1523, AID1801, AID463107, AID463118, AID463119, AID463122, AID463123, AID463129, AID463225, AID504400, AID504460]; type: functional
[7] = molecular target: T2, Tyrosine-protein phosphatase non-receptor type 7 (Homo sapiens, UniProt P35236); type: functional
T2 sequence (P35236 whole entry): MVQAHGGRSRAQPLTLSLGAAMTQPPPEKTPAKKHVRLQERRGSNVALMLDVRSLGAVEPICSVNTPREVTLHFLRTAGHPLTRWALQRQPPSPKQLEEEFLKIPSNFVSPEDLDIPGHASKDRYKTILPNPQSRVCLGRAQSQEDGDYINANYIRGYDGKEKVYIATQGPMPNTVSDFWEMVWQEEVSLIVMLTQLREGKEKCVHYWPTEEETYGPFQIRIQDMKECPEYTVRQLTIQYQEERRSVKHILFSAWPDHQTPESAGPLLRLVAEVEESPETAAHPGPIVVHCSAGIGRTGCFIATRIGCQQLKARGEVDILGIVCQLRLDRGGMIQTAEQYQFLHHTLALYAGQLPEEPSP

[8] = molecular target: T3, Tyrosine-protein phosphatase non-receptor type 22 (Homo sapiens, UniProt Q9Y2R2); type: functional
T3 sequence (Q9Y2R2 whole entry): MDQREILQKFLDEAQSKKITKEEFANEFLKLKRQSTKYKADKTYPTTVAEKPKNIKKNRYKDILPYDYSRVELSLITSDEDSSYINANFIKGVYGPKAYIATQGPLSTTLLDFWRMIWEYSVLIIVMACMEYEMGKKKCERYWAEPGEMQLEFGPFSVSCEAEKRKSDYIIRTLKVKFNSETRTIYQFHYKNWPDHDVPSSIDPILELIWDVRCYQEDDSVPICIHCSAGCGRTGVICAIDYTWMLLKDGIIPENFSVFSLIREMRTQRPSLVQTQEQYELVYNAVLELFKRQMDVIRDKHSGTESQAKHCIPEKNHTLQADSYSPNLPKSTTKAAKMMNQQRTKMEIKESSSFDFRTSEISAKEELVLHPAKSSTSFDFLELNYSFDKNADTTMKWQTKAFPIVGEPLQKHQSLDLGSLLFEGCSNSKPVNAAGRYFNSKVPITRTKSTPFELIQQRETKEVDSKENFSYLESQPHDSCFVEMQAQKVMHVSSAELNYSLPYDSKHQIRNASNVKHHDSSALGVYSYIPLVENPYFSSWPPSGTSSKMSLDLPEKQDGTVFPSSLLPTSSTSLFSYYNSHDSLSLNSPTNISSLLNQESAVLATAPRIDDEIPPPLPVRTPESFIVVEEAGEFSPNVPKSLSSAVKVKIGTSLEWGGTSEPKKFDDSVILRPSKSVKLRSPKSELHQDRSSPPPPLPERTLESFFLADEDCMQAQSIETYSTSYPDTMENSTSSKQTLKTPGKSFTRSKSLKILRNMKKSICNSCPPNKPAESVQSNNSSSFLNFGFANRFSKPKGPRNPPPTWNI

[9] = molecular target: T3, Tyrosine-protein phosphatase non-receptor type 22; type: functional; remark: listed apart in the source
[10] = molecular target: Voltage-dependent T-type calcium channel subunit alpha-1H (Homo sapiens, UniProt O95180); experiment: Cav3.2 T-type channel blockers, cell-based, SynthLib3 library, HEK293 Cav3.2, fluorescence (AID 493041); type: functional
[11] = molecular target: Intestinal-type alkaline phosphatase (Homo sapiens, UniProt P09923); experiment: activation of human intestinal alkaline phosphatase – biochemical, dose response (AID 488873); type: functional
[12] = molecular target: T4, Alkaline phosphatase, tissue-nonspecific isozyme (Homo sapiens, UniProt P05186); experiment: TNAP enzyme activators, dose response, selectivity assay for mouse IAP activator project, biochemical, TNAP isozyme, mouse IAP uHTS hits (AID 488880); type: functional
T4 sequence (P05186 whole entry): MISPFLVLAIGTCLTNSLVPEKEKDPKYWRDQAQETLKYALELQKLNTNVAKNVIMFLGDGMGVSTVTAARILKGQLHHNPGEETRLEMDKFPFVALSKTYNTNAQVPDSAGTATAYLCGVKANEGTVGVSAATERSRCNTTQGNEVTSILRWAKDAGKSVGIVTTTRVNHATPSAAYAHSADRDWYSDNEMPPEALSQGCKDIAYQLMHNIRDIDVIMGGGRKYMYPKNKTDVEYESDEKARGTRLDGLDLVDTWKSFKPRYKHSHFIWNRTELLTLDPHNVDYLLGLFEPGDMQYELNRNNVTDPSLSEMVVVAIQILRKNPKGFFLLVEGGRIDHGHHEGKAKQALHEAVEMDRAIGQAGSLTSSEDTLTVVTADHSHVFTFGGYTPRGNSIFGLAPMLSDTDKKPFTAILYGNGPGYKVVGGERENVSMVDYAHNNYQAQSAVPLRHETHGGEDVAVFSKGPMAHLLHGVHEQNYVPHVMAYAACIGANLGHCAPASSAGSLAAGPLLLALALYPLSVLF

[13] = molecular target: Intestinal-type alkaline phosphatase (Mus musculus, UniProt P24822); experiment: mouse intestinal alkaline phosphatase activators, dose response, biochemical, luminescence, uHTS hits (AID 488783); type: functional
[14] = molecular target: T5, Apoptotic protease-activating factor 1 (Homo sapiens, UniProt O14727); type: functional
T5 sequence (O14727 whole entry): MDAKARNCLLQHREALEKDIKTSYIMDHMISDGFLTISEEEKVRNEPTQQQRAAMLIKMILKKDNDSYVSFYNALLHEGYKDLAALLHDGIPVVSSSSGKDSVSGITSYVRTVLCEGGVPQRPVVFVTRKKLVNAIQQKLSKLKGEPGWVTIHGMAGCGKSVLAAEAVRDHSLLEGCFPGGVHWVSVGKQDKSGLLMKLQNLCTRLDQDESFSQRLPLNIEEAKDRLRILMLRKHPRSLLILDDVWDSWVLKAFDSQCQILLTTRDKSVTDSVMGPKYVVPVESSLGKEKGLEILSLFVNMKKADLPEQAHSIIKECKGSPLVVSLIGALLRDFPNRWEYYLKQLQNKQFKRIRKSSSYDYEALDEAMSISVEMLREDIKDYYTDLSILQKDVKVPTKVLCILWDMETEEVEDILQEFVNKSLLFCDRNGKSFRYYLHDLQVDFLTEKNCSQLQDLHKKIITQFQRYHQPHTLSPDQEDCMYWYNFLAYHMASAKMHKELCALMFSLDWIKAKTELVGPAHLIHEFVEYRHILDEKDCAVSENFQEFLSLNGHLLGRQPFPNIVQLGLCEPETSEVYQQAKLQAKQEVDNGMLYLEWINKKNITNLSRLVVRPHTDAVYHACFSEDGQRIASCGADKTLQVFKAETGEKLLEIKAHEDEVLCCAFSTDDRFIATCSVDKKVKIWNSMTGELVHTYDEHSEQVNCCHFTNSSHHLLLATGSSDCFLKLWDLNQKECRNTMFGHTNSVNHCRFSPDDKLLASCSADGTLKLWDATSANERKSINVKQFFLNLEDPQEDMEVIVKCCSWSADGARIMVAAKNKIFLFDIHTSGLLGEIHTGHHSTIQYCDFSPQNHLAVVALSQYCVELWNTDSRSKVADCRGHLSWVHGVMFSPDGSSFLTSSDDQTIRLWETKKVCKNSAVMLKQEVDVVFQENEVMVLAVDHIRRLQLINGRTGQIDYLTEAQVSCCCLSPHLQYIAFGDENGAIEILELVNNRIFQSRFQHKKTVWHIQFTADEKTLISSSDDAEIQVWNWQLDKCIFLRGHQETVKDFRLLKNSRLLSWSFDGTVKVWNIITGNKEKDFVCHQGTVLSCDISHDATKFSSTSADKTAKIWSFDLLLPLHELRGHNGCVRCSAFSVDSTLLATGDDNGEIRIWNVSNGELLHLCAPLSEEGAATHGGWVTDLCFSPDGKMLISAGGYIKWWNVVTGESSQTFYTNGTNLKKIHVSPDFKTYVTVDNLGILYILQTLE

[15] = cytotoxicity in HEK-293T cells, dose response, cytotoxicity control for TCR NF-kB inhibitor project, luminescence, T-cell screen hits (AID 489026); type: functional, cell-based;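 also: cells exposed to compound about 14 hours before the viability readout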

T1 sequence (P49327 whole entry, the tested form may be a part): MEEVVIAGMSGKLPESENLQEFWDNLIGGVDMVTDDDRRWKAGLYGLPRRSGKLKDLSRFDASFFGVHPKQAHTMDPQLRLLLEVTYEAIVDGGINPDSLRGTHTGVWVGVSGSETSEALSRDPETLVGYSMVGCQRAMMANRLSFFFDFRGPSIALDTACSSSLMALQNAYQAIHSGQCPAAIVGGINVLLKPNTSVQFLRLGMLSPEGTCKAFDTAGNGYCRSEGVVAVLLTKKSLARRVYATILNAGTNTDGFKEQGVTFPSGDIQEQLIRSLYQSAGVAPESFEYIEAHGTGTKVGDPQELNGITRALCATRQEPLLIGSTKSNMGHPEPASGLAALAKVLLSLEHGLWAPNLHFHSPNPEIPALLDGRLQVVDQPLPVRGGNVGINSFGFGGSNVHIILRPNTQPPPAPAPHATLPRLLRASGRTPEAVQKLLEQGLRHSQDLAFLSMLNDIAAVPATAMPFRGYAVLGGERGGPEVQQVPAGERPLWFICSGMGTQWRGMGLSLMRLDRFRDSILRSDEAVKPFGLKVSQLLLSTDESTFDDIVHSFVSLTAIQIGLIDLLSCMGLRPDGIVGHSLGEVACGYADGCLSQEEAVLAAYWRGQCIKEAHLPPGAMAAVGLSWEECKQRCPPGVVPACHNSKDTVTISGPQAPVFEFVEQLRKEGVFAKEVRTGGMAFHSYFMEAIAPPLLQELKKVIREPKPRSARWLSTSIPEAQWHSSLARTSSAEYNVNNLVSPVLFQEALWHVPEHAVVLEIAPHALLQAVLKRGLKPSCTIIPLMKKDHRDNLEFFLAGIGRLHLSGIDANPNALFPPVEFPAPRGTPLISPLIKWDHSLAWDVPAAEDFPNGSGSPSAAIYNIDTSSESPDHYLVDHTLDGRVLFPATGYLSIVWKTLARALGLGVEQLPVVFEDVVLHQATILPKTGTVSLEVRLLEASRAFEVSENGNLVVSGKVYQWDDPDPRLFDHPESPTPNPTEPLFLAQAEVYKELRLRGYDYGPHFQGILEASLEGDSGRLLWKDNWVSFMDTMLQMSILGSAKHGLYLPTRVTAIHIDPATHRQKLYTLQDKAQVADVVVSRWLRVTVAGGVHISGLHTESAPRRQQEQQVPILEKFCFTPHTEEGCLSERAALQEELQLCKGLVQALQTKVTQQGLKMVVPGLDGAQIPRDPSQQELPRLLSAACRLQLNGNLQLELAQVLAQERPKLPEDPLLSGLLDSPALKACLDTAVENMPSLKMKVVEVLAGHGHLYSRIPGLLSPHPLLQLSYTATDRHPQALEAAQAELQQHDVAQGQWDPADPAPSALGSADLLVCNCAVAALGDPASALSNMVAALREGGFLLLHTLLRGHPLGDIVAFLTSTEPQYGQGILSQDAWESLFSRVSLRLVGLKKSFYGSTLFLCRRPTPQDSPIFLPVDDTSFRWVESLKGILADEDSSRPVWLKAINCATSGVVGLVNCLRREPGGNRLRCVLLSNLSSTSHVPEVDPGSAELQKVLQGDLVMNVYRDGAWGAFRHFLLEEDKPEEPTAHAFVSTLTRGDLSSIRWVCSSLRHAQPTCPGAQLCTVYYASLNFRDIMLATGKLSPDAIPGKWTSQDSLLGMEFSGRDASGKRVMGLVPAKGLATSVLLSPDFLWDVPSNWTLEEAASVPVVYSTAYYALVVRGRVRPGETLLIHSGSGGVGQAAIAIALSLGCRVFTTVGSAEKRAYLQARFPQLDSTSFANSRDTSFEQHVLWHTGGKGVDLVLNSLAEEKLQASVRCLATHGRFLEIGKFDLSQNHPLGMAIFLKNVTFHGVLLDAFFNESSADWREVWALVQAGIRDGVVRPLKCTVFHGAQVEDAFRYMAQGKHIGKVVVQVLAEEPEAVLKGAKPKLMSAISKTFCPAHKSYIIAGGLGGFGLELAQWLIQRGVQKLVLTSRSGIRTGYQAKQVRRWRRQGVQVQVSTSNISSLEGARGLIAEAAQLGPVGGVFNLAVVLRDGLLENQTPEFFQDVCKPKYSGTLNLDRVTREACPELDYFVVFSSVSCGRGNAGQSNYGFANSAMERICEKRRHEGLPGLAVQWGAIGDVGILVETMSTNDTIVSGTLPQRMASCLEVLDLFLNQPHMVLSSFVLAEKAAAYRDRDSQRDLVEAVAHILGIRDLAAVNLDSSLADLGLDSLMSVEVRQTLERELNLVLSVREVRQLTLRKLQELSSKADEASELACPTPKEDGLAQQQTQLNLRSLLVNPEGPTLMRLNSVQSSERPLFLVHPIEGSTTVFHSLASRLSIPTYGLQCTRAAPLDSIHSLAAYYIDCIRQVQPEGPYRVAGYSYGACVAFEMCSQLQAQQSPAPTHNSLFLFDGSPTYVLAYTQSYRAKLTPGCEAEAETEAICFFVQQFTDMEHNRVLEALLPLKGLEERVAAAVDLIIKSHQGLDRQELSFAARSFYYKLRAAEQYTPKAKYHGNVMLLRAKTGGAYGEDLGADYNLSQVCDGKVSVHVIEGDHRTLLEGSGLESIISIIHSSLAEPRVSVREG
Sequence of Intestinal-type alkaline phosphatase (Homo sapiens, UniProt P09923) (P09923 whole entry): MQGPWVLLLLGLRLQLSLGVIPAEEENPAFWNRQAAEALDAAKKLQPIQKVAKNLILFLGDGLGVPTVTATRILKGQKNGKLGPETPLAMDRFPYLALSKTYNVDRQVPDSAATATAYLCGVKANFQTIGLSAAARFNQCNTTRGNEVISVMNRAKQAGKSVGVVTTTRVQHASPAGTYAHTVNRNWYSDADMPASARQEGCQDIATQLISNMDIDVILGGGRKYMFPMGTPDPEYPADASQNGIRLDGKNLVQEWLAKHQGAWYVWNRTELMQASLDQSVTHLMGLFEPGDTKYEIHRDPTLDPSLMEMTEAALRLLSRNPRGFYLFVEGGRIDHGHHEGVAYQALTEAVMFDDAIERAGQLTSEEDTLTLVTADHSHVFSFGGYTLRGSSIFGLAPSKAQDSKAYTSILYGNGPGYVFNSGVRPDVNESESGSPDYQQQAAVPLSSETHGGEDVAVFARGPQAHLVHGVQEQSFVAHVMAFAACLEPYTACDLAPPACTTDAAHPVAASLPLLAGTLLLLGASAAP
Sequence of Sphingosine 1-phosphate receptor 1 (P21453 whole entry): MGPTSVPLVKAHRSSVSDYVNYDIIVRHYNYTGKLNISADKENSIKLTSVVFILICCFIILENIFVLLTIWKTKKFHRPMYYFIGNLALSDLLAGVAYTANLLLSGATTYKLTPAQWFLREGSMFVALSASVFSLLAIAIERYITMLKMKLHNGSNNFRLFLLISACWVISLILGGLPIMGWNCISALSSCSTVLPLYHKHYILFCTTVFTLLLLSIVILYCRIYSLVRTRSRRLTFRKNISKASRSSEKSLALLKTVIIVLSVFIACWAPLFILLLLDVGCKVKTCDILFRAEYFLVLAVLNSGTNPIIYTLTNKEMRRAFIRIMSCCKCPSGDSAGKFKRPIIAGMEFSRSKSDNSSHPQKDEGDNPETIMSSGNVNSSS
Sequence of Sphingosine 1-phosphate receptor 4 (O95977 whole entry): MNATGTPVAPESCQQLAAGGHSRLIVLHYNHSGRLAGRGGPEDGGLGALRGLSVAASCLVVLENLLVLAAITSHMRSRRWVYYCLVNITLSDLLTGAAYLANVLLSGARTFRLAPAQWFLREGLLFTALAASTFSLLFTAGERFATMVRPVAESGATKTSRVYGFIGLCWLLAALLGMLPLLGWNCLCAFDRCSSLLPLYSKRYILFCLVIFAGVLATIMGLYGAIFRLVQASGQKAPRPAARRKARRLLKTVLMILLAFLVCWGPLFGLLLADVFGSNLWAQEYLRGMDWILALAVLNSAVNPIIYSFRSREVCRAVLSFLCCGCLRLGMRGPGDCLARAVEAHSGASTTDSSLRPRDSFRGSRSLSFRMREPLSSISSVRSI
Sequence of Sphingosine 1-phosphate receptor 2 (O95136 whole entry, the tested form may be a part): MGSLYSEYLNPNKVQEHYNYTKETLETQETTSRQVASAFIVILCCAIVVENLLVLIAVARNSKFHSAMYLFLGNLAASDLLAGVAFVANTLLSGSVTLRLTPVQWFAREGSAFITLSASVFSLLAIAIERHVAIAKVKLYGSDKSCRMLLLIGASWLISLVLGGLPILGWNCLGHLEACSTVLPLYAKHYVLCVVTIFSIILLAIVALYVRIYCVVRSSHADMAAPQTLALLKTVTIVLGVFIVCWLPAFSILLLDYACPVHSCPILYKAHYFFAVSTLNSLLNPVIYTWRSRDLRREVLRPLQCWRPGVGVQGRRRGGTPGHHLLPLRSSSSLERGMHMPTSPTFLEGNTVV
Sequence of Endoplasmic reticulum aminopeptidase 1 (Q9NZ08 whole entry): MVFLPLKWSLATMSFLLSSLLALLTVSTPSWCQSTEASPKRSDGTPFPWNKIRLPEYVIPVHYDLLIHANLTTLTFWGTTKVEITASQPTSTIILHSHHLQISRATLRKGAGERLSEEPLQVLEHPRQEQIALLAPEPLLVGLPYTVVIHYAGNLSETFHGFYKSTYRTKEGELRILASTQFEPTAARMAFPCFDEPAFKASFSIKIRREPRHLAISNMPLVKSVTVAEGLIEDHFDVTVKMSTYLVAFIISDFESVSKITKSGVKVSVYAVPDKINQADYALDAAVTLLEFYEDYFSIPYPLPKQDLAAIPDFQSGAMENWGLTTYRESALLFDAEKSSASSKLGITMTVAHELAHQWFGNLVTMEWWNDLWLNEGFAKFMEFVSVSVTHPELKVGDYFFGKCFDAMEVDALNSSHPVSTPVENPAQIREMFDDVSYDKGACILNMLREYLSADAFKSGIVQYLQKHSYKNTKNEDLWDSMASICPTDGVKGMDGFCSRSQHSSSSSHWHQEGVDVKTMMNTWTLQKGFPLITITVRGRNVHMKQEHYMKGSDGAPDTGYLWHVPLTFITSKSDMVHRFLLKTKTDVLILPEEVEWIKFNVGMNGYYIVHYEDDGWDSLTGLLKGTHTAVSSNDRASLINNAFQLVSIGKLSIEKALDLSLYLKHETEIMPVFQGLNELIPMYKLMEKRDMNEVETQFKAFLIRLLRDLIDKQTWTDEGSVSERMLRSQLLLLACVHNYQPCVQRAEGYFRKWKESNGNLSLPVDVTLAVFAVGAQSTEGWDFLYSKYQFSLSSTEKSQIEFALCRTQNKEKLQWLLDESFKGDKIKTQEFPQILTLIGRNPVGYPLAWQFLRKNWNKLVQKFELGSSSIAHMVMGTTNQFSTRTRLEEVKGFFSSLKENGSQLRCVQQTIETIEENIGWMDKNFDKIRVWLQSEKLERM

IC50 (Fatty acid synthase [1]): 0.469 µM (active)
EC50 [2]: 1.95 µM (active)
IC50 (Fatty acid synthase [3]): 0.434 µM (active)
AC50 [4]: 13 µM (active)
EC50 [5]: 3.65 µM (active)
EC50 [6]: 3.12 µM (active)
SMILES: O=S(=O)(c1ccc(N2CCC(c3ccc(Cl)cc3)=N2)cc1)N(CCO)CCO

IC50 [7]: > 79.4 µM (inactive)
IC50 [8]: > 79.4 µM (inactive)
IC50 [9]: > 79.4 µM (inactive)
SMILES: Cc1cc(C(=O)NCCCN2CCCC2=O)cs1

EC50 [10]: 1.8 µM (active)
SMILES: CC(C)Cc1nnc(NC(=O)COc2ccc(Cl)cc2Cl)o1

SMILES: Cc1cc(O)c2c(c1O)C(=O)[C@]13C(=C2O)C(=O)[C@@H]2[C@@H](O)[C@H]1[C@@H]1[C@H](O)[C@H]3C(=O)C3=C(O)c4c(O)cc(C)c(O)c4C(=O)[C@]312
EC50 [11]: 63.3 µM (active)
EC50 [12]: 51.2 µM (active)
EC50 [13]: 43.1 µM (active)
IC50 [14]: 19.5 µM (active)
IC50 [15]: > 80 µM (inactive)
